From the supplement of paper PMC11451515

Tested on: NOMO1
Assay: cell viability relative to DMSO control; higher = less cytotoxic
Settings: 48 h
Outline: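 Viability values are per-plate percentages of DMSO wells, with background from cell-free wells. Library compounds in DMSO were pin-dosed, in an 11-point threefold series from 47 μM to 0.79 nM, onto NOMO1 or SEM (500 cells/well) or P12-Ichikawa (1000 cells/well) leukemia cells in 1536-well plates (5 μl). Those cells had been adapted for at least four passages in each medium, and CellTiter-Glo One luminescence was read after 48 h at 37°C.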

[1] = HPLM + 10% dialyzed FBS, 0.000781 µM
[2] = HPLM + 10% dialyzed FBS, 0.00234 µM
[3] = HPLM + 10% dialyzed FBS, 0.00702 µM
[4] = HPLM + 10% dialyzed FBS, 0.0211 µM
[5] = HPLM + 10% dialyzed FBS, 0.0632 µM
[6] = HPLM + 10% dialyzed FBS, 0.19 µM
[7] = HPLM + 10% dialyzed FBS, 0.569 µM
[8] = HPLM + 10% dialyzed FBS, 1.71 µM
[9] = HPLM + 10% dialyzed FBS, 5.12 µM
[10] = HPLM + 10% dialyzed FBS, 15.4 µM
[11] = HPLM + 10% dialyzed FBS, 46.1 µM
[12] = RPMI 5 mM glucose + 10% FBS, 0.000781 µM
[13] = RPMI 5 mM glucose + 10% FBS, 0.00234 µM
[14] = RPMI 5 mM glucose + 10% FBS, 0.00702 µM
[15] = RPMI 5 mM glucose + 10% FBS, 0.0211 µM
[16] = RPMI 5 mM glucose + 10% FBS, 0.0632 µM
[17] = RPMI 5 mM glucose + 10% FBS, 0.19 µM
[18] = RPMI 5 mM glucose + 10% FBS, 0.569 µM
[19] = RPMI 5 mM glucose + 10% FBS, 1.71 µM
[20] = RPMI 5 mM glucose + 10% FBS, 5.12 µM
[21] = RPMI 5 mM glucose + 10% FBS, 15.4 µM
[22] = RPMI 5 mM glucose + 10% FBS, 46.1 µM
[23] = RPMI 5 mM glucose + 10% dialyzed FBS, 0.000781 µM
[24] = RPMI 5 mM glucose + 10% dialyzed FBS, 0.00234 µM
[25] = RPMI 5 mM glucose + 10% dialyzed FBS, 0.00702 µM
[26] = RPMI 5 mM glucose + 10% dialyzed FBS, 0.0211 µM
[27] = RPMI 5 mM glucose + 10% dialyzed FBS, 0.0632 µM
[28] = RPMI 5 mM glucose + 10% dialyzed FBS, 0.19 µM
[29] = RPMI 5 mM glucose + 10% dialyzed FBS, 0.569 µM
[30] = RPMI 5 mM glucose + 10% dialyzed FBS, 1.71 µM
[31] = RPMI 5 mM glucose + 10% dialyzed FBS, 5.12 µM
[32] = RPMI 5 mM glucose + 10% dialyzed FBS, 15.4 µM
[33] = RPMI 5 mM glucose + 10% dialyzed FBS, 46.1 µM

Structure (SMILES)	cell viability [1] [%]	cell viability [2] [%]	cell viability [3] [%]	cell viability [4] [%]	cell viability [5] [%]	cell viability [6] [%]	cell viability [7] [%]	cell viability [8] [%]	cell viability [9] [%]	cell viability [10] [%]	cell viability [11] [%]	cell viability [12] [%]	cell viability [13] [%]	cell viability [14] [%]	cell viability [15] [%]	cell viability [16] [%]	cell viability [17] [%]	cell viability [18] [%]	cell viability [19] [%]	cell viability [20] [%]	cell viability [21] [%]	cell viability [22] [%]	cell viability [23] [%]	cell viability [24] [%]	cell viability [25] [%]	cell viability [26] [%]	cell viability [27] [%]	cell viability [28] [%]	cell viability [29] [%]	cell viability [30] [%]	cell viability [31] [%]	cell viability [32] [%]	cell viability [33] [%]
C=C(C)[C@H]1Cc2c(ccc3c2O[C@@H]2COc4cc(OC)c(OC)cc4[C@@H]2C3=O)O1	103	102	120	110	124	116	107	89.2	52.6	37.3	28.8	105	118	105	106	109	102	102	102	63.8	23.9	20.4	99.3	101	98.4	99.8	104	104	87.8	98.7	81.5	29.5	24.1
CC(C)C(=O)Nc1ccc([N+](=O)[O-])c(C(F)(F)F)c1	118	120	118	128	140	137	44	39.3	39	42.3	41.3	–	–	–	–	–	–	–	–	–	–	–	–	–	–	–	–	–	–	–	–	–	–
OC[C@H]1OCC(O1)[N@@]2C=CC(N)=NC2=O (some centres undefined)	115	127	101	105	117	113	131	86.7	121	126	94.8	114	123	118	116	114	127	118	113	122	108	108	103	133	112	109	125	111	117	113	120	113	113
O=c1[nH]c2ccccc2n1C1CCN(Cc2ccc(-c3nc4cc5nc[nH]c5cc4nc3-c3ccccc3)cc2)CC1	95.9	126	114	126	133	130	108	97	90.7	103	95.9	101	119	108	113	123	113	115	107	111	121	118	98.8	104	109	105	116	116	103	107	97.9	115	102
CC(N)C12CC3CC(CC(C3)C1)C2 (centres undefined)	99.4	120	116	113	117	104	126	109	104	85.1	80.2	104	118	122	111	108	116	126	112	112	53.4	49.2	–	–	–	–	–	–	–	–	–	–	–
C[C@]12CC[C@@H]3c4ccc(O)cc4C[C@@H](CCCCCCCCC[S+]([O-])CCCC(F)(F)C(F)(F)F)[C@H]3[C@@H]1CC[C@@H]2O (some centres undefined)	–	–	–	–	–	–	–	–	–	–	–	103	118	104	131	121	113	107	104	115	118	104	–	–	–	–	–	–	–	–	–	–	–
FC(F)c1nc2ccccc2n1-c1nc(N2CCOCC2)nc(N2CCOCC2)n1	104	93.8	92	60.1	65.3	42.6	43.9	36.3	41.5	27.7	30.6	85.4	92.2	87.9	94.5	78	67.8	52.6	62.8	45.7	60.2	31.2	86.5	102	97.1	97.5	76.5	71	54.7	52.9	50.2	43.9	34.4
Cn1cnc2c1c(=O)[nH]c(=O)n2C	112	102	102	119	108	110	116	96.4	105	78.3	5.56	99.2	110	96.2	92.6	97	96.5	103	88.1	99.3	91.6	7.98	101	91.7	99	114	109	104	100	102	96	90	9.87
